For 24 compounds, IC50 results are on record in patent US8575163B2, “Pyrrolopyridinylpyrimidin-2-ylamine derivatives” (Merck Patent GmbH, priority 2009, dated 2013).

pIC50: −log10 of the molar value.

The test system of test [1] is PDK1 kinase activity (phospho-T308-PKB) in PC3 cells. Description: Cellular testing of PDK1 kinase inhibitors in PC3 cells (Luminex, phospho-T308-PKB). Conditions: Homo sapiens, PC-3, 0.5 h, 30 min incubation, serum-free, read-out: IC50 PC3 cells [P-PKB T308]. The test is classed as cell-based. The protocol:
Method for the Cellular Testing of PDK1 Kinase Inhibitors in PC3 Cells.
The cellular assay for the determination of the PDK1 kinase activity is carried out as a Luminex assay in the 96-well format. PC3 cells are shown at 20,000 cells per well in 100 μl of medium (45% of […]/45% of Ham's F12/10% of FCS) and incubated on the following day for 30 min with a serial dilution of the test substance (7 concentrations) under serum-free conditions. The cells are subsequently lysed using 90 μl of lysis buffer (20 mM tris/HCl pH 8.0, 150 mM NaCl, 1% of NP40, 10% of glycerol, 1% of phosphatase inhibitor I, 1% of phosphatase inhibitor II, 0.1% of protease inhibitor cocktail III, 0.01% of benzonase) per well, and the lysates are separated off from insoluble cell constituents by means of centrifugation through a 96-well filter plate (0.65 μm). The lysates are incubated overnight at 4° C. with shaking with Luminex beads to which an anti-total PKB antibody is coupled. The detection is carried out on the following day by addition of a phospho-T308-PKB antibody and a species-specific peroxidase-labelled secondary antibody. The detection of phospho-T308-PKB is carried out by measurement in a Luminex100 instrument by determination of 100 events per cavity in a measurement time of 60 sec. As pharmacological blank, the signals obtained from cells which have been treated with 10 μM staurosporin are subtracted from all other batches. The control value used for maximum phosphorylation of PKB on T308 are the signals from cells which have only been treated with the solvent (0.3% of DMSO). The values of the batches treated with test substance are calculated therefrom as percentage of control, and IC50 values are determined by means of RS1.

A further test addresses T1, PDK1 (Homo sapiens, UniProt O15530).
T1 construct: His6 (N)
T1 sequence (O15530 51-556 limits assumed): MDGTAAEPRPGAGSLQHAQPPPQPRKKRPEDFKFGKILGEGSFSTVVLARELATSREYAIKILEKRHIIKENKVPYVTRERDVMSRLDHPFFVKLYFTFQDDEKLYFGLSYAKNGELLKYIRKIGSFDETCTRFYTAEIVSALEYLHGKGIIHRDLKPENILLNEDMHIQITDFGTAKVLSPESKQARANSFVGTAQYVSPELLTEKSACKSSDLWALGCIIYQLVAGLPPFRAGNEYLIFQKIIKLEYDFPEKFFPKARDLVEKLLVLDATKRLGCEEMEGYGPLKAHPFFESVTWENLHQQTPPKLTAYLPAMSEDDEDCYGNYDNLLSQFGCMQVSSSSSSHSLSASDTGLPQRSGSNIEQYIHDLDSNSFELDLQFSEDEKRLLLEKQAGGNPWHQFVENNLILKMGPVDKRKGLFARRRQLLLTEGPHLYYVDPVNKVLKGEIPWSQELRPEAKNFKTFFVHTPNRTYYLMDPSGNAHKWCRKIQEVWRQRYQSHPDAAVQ
Description: Test for the inhibition of PDK1 (flashplate, 33P-ATP). It is filed as biochemical. Conditions: His6-PDK1 3.4 nM, 4 μM ATP, 30° C., 60 min. The method in brief:
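His6-PDK1(1-50) (3.4 nM) and a biotinylated peptide substrate (400 nM) were incubated 60 min at 30° C with 4 μM ATP containing ^33P-ATP and test compound. Incorporated radioactivity was counted after subtracting a 100 nM staurosporine blank and expressed as % of control; IC50 derived from these.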

In general, pIC50 refers to the negative decadic logarithm of the IC50, by convention in mol/L. For the compound `CC[C@](O)(c1cc(-c2c[nH]c3ncc(-c4cnn(C)c4)cc23)nc(N)n1)c1ccncc1F` (single isomer, unassigned) [A131], the figures for the pIC50 (in test [1]; at PDK1) were 7.96 and 8.42, respectively.
The like results for `CC[C@@](O)(c1cc(-c2c[nH]c3ncc(-c4cnn(C)c4)cc23)nc(N)n1)c1ccncc1F` (single isomer, unassigned) [A132] were, in that order, 6.85 and 7.49.
For `CCC[C@](O)(c1ccncc1)c1cc(-c2c[nH]c3ncc(-c4cnn(C)c4)cc23)nc(N)n1` (single isomer, unassigned) [A133], the figures for the pIC50 (in test [1]; at PDK1) were 5.72 and 7.32, respectively.
In the case of `CCC[C@@](O)(c1ccncc1)c1cc(-c2c[nH]c3ncc(-c4cnn(C)c4)cc23)nc(N)n1` (single isomer, unassigned) [A134], the values for the pIC50 (in test [1]; on PDK1) were 6.55 and 8.39, respectively.
Turning to `CC[C@](O)(c1ccccc1)c1cc(-c2c[nH]c3ncc(-c4cnn(CC(=O)N5CCCCC5)c4)cc23)nc(N)n1` (single isomer, unassigned) [A135], the pIC50 in test [1] is 7.47; against PDK1 it was 8.16.
The like results for `CC[C@@](O)(c1ccccc1)c1cc(-c2c[nH]c3ncc(-c4cnn(CC(=O)N5CCCCC5)c4)cc23)nc(N)n1` (single isomer, unassigned) [A136] were, in that order, 6.06 and 6.68.
The like results for `Cn1cc(-c2cnc3[nH]cc(-c4cc([C@@](C)(O)c5cccc(Cl)c5F)nc(N)n4)c3c2)cn1` (single isomer, unassigned) [A137] were, in that order, 7.85 and 7.55.
The like results for `Cn1cc(-c2cnc3[nH]cc(-c4cc([C@](C)(O)c5cccc(Cl)c5F)nc(N)n4)c3c2)cn1` (single isomer, unassigned) [A138] were, in that order, 5.05 and 7.41.
Take `COCO[C@](C)(c1ccncc1)c1cc(-c2c[nH]c3ncc(Br)cc23)nc(N)n1` (single isomer, unassigned) [A139]: the values for the pIC50 (in test [1]; against PDK1) were 5.15 and 6.68, respectively.
For the compound `COCO[C@@](C)(c1ccncc1)c1cc(-c2c[nH]c3ncc(Br)cc23)nc(N)n1` (single isomer, unassigned) [A140], the results for the pIC50 (in test [1]; against PDK1) were 5.05 and 6.66, respectively.
The like results for `CC(O)(c1ccccc1)c1cc(-c2c[nH]c3ncc(-c4cnn(C5CCNCC5)c4)cc23)nc(N)n1` (stereo not drawn) [A13, 1-{2-amino-6-[5-(1-piperidin-4-yl-1H-pyrazol-4-yl)-1H-pyrrolo[2,3-b]pyridin-3-yl]pyrimidin-4-yl}-1-phenylethanol] were, in that order, 5.92 and 6.28.
Consider `COCOC(C)(c1cc(-c2c[nH]c3ncc(-c4cnn(C)c4)cc23)nc(N)n1)c1ccccc1C` (stereo not drawn) [A18, 4-(1-methoxymethoxy-1-o-tolylethyl)-6-[5-(1-methyl-1H-pyrazol-4-yl)-1H-pyrrolo[2,3-b]pyridin-3-yl]pyrimidin-2-ylamine], for which the pIC50 was 7.16 in test [1] and 7.49 on PDK1.
`CCCC(O)(c1ccncc1)c1cc(-c2c[nH]c3ncc(-c4cnn(C)c4)cc23)nc(N)n1` (stereo not drawn) [A35, 1-{2-amino-6-[5-(1-methyl-1H-pyrazol-4-yl)-1H-pyrrolo[2,3-b]pyridin-3-yl]-pyrimidin-4-yl}-1-pyridin-4-ylbutan-1-ol]: the pIC50 was 6.68 in test [1] and 8.52 against PDK1.
The like results for `CCC(O)(c1ccncc1)c1cc(-c2c[nH]c3ncc(-c4cnn(CC(=O)N5CCCCC5)c4)cc23)nc(N)n1` (stereo not drawn) [A50, 2-(4-{3-[2-amino-6-(1-hydroxy-1-pyridin-4-ylpropyl)pyrimidin-4-yl]-1H-pyrrolo[2,3-b]pyridin-5-yl}pyrazol-1-yl)-1-piperidin-1-ylethanone] were, in that order, 6.28 and 8.40.
The like results for `CCC(O)(c1ccncc1)c1cc(-c2c[nH]c3ncc(-c4cn[nH]c4)cc23)nc(N)n1` (stereo not drawn) [A53, 1-{2-amino-6-[5-(1H-pyrazol-4-yl)-1H-pyrrolo[2,3-b]pyridin-3-yl]pyrimidin-4-yl}-1-pyridin-4-ylpropan-1-ol] were, in that order, 6.16 and 8.72.
The like results for `Cn1cc(-c2cnc3[nH]cc(-c4cc(C(O)(c5ccccc5)C(F)(F)F)nc(N)n4)c3c2)cn1` (stereo not drawn) [A69, 1-{2-amino-6-[5-(1-methyl-1H-pyrazol-4-yl)-1H-pyrrolo[2,3-b]pyridin-3-yl]-pyrimidin-4-yl}-2,2,2-trifluoro-1-phenylethanol] were, in that order, 6.62 and 6.82.
Consider `Cn1cc(-c2cnc3[nH]cc(-c4cc(C(C)(O)c5cccc(F)c5)nc(N)n4)c3c2)cn1` (stereo not drawn) [A105, 1-{2-amino-6-[5-(1-methyl-1H-pyrazol-4-yl)-1H-pyrrolo[2,3-b]pyridin-3-yl]-pyrimidin-4-yl}-1-(3-fluorophenyl)ethanol], for which the results for the pIC50 (in test [1]; against PDK1) were 6.96 and 7.89, respectively.
Regarding `Cn1cc(-c2cnc3[nH]cc(-c4cc(C(C)(O)c5cccc(F)c5)nc(N)n4)c3c2F)cn1` (stereo not drawn) [A106, 1-{2-amino-6-[4-fluoro-5-(1-methyl-1H-pyrazol-4-yl)-1H-pyrrolo-[2,3-b]pyridin-3-yl]pyrimidin-4-yl}-1-(3-fluorophenyl)ethanol], the figures for the pIC50 (in test [1]; at PDK1) were 8.29 and 7.59, respectively.
The like results for `CCC(O)(c1cc[n+]([O-])cc1)c1cc(-c2c[nH]c3ncc(-c4cnn(C)c4)cc23)nc(N)n1` (stereo not drawn) [A110, 1-{2-amino-6-[5-(1-methyl-1H-pyrazol-4-yl)-1H-pyrrolo[2,3-b]pyridin-3-yl]-pyrimidin-4-yl}-1-(1-oxypyridin-4-yl)propan-1-ol] were, in that order, 5.09 and 8.27.
The like results for `COc1ccc(C(C)(O)c2cc(-c3c[nH]c4ncc(-c5cnn(C)c5)cc34)nc(N)n2)cn1` (stereo not drawn) [A112, 1-{2-amino-6-[5-(1-methyl-1H-pyrazol-4-yl)-1H-pyrrolo[2,3-b]pyridin-3-yl]-pyrimidin-4-yl}-1-(6-methoxypyridin-3-yl)ethanol] were, in that order, 5.89 and 6.92.
The like results for `Cn1cc(-c2cnc3[nH]cc(-c4cc(C(C)(O)c5ccncn5)nc(N)n4)c3c2)cn1` (stereo not drawn) [A113, 1-{2-amino-6-[5-(1-methyl-1H-pyrazol-4-yl)-1H-pyrrolo[2,3-b]pyridin-3-yl]-pyrimidin-4-yl}-1-pyrimidin-4-ylethanol] were, in that order, 5.14 and 7.51.
Consider `CC(C)n1cc(-c2cnc3[nH]cc(-c4cc(C(C)(O)c5cccc(F)c5F)nc(N)n4)c3c2)cn1` (stereo not drawn) [A114, 1-{2-amino-6-[5-(1-isopropyl-1H-pyrazol-4-yl)-1H-pyrrolo[2,3-b]pyridin-3-yl]-pyrimidin-4-yl}-1-(2,3-difluorophenyl)ethanol], for which the pIC50 in test [1] is 7.85; against PDK1, 7.41.
The like results for `CC(C)C(O)(c1cccc(F)c1)c1cc(-c2c[nH]c3ncc(-c4cnn(C)c4)cc23)nc(N)n1` (stereo not drawn) [A115, 1-{2-amino-6-[5-(1-methyl-1H-pyrazol-4-yl)-1H-pyrrolo[2,3-b]pyridin-3-yl]-pyrimidin-4-yl}-1-(3-fluorophenyl)-2-methylpropan-1-ol] were, in that order, 6.96 and 7.25.
The like results for `CCCC(O)(c1cccc(F)c1)c1cc(-c2c[nH]c3ncc(-c4cnn(C)c4)cc23)nc(N)n1` (stereo not drawn) [A116, 1-{2-amino-6-[5-(1-methyl-1H-pyrazol-4-yl)-1H-pyrrolo[2,3-b]pyridin-3-yl]-pyrimidin-4-yl}-1-(3-fluorophenyl)butan-1-ol] were, in that order, 6.55 and 7.36.
